Measured values published in the supplement of paper PMC11061612.

Experiments:
Test in all cases: combination Emax (second highest fraction inhibited in the dose matrix, 72 h); higher = more inhibition; extreme values may be limits of the assay
[1] = system: LU-99A (Non-Small Cell Lung Carcinoma)
Outline: (§1)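 Cell lines in DMEM/F12 or RPMI with 10% FBS were plated in 1536-well plates, held 24 hours at 37°C, 5% CO2, then given two-drug dose matrices for 72 hours (DMSO typically 0.2%). Viability was read by CellTiter-Glo 2.0 luminescence and scaled as inhibition from 0 (vehicle wells) to 1 (blank wells). Combination Emax is the second-highest inhibition in the matrix; Bliss excess is observed combination effect minus expected EA + EB − EA·EB, EA and EB being single-agent effects.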

CAL-78 (Chondrosarcoma) = system: CAL-78 (Chondrosarcoma)
Outline: as §1

[2] = system: DOV13 (Ovarian Carcinoma)
Outline: as §1

[3] = system: JiyoyeP-2003 (Burkitt's Lymphoma)
Outline: as §1

SK-N-FI (Neuroblastoma) = system: SK-N-FI (Neuroblastoma)
Outline: as §1

[4] = system: 697 (B-Lymphoblastic Leukemia)
Outline: as §1

[5] = system: NCI-H1299 (Non-Small Cell Lung Carcinoma)
Outline: as §1

[6] = system: EM-2 (Chronic Myelogenous Leukemia)
Outline: as §1

[7] = system: TE-5 (Esophageal Squamous Cell Carcinoma)
Outline: as §1

J82 (Bladder Carcinoma) = system: J82 (Bladder Carcinoma)
Outline: as §1

[8] = system: SUIT-2 (Pancreatic Carcinoma)
Outline: as §1

[9] = system: NCI-H1793 (Lung Adenocarcinoma)
Outline: as §1

[10] = system: DB (B-Cell Non-Hodgkin's Lymphoma)
Outline: as §1

[11] = system: KARPAS-620 (Plasma Cell Myeloma)
Outline: as §1

SN12C (Kidney Carcinoma) = system: SN12C (Kidney Carcinoma)
Outline: as §1

[12] = system: C3A (Hepatocellular Carcinoma)
Outline: as §1

[13] = system: LS-513 (Colorectal Carcinoma)
Outline: as §1

[14] = system: MDA-MB-231 (Breast Carcinoma)
Outline: as §1

[15] = system: MFH-ino (Other Solid Carcinomas)
Outline: as §1

DSH1 (Bladder Carcinoma) = system: DSH1 (Bladder Carcinoma)
Outline: as §1

SMILES	combination Emax [1]	combination Emax (CAL-78 (Chondrosarcoma))	combination Emax [2]	combination Emax [3]	combination Emax (SK-N-FI (Neuroblastoma))	combination Emax [4]	combination Emax [5]	combination Emax [6]	combination Emax [7]	combination Emax (J82 (Bladder Carcinoma))	combination Emax [8]	combination Emax [9]	combination Emax [10]	combination Emax [11]	combination Emax (SN12C (Kidney Carcinoma))	combination Emax [12]	combination Emax [13]	combination Emax [14]	combination Emax [15]	combination Emax (DSH1 (Bladder Carcinoma))
COc1nnc2ccc(N3CCC(c4ccc(OCCN5CCN(C)C(=O)[C@H]5C)cc4)CC3)nn12 [AZD5153] + C[C@@H]1COCCN1C2=NC(=NC(=C2)C3(CC3)[S@](=N)(=O)C)C4=C5C=CNC5=NC=C4 [AZD6738] (first compound max 1 µM, 7x7, partner max 10 µM)	0.755	0.515	0.923	0.95	0.783	1	0.794	0.998	0.503	0.604	0.671	0.629	0.811	0.835	0.204	0.741	0.755	0.81	0.547	0.808
CN(CCO)CC[C@H](CSc1ccccc1)Nc1ccc(S(=O)(=O)NC(=O)c2ccc(N3CCC([C@@H](O)c4ccccc4-c4ccc(Cl)cc4)CC3)cc2)cc1S(=O)(=O)C(F)(F)F [AZD4320] + Cc1cc2ncnn2cc1Nc1ncc2c(n1)n(C1CCOCC1)c(=O)n2C [AZD7648] (first compound max 1 µM, 7x7, partner max 10 µM)	0.447	0.46	0.779	0.639	0.201	1	0.268	0.99	0.531	0.0607	0.104	0.356	0.976	1	0.145	0.248	0.155	0.637	0.161	0.586
COc1cccc2c1C(=O)c1c(O)c3c(c(O)c1C2=O)C[C@@](O)(C(=O)CO)C[C@@H]3O[C@H]1C[C@H](N)[C@H](O)[C@H](C)O1 [Doxorubicin] + Cc1cc2ncnn2cc1Nc1ncc2c(n1)n(C1CCOCC1)c(=O)n2C [AZD7648] (first compound max 1 µM, 7x7, partner max 10 µM)	0.751	0.542	0.914	0.981	0.373	1	0.66	0.978	0.678	0.41	0.646	0.378	0.896	0.681	0.642	0.485	0.617	0.786	0.608	0.86
CN(CCO)CC[C@H](CSc1ccccc1)Nc1ccc(S(=O)(=O)NC(=O)c2ccc(N3CCC([C@@H](O)c4ccccc4-c4ccc(Cl)cc4)CC3)cc2)cc1S(=O)(=O)C(F)(F)F [AZD4320] + C=CCn1c(=O)c2cnc(Nc3ccc(N4CCN(C)CC4)cc3)nc2n1-c1cccc(C(C)(C)O)n1 [AZD1775] (first compound max 1 µM, partner max 1 µM)	0.762	0.846	0.999	0.992	0.629	1	0.88	0.99	0.663	0.117	0.491	0.449	1	1	0.322	0.631	0.866	0.716	0.237	0.799
COc1nnc2ccc(N3CCC(c4ccc(OCCN5CCN(C)C(=O)[C@H]5C)cc4)CC3)nn12 [AZD5153] + Cc1c2c(nn1C)CSCc1cc(n(C)n1)CSc1cc(c3ccccc3c1)OCCCc1c(C(=O)O)n(C)c3c-2c(Cl)ccc13 [AZD5991] (first compound max 1 µM, 7x7, partner max 1 µM)	0.807	0.749	0.487	0.918	0.722	1	0.798	0.988	0.407	0.791	0.462	0.288	1	1	0.309	0.559	0.644	0.642	0.489	1
COc1cc2c(cc1OCCCCCOc1cc3c(cc1OC)C(=O)N1C=C(C)C[C@H]1C=N3)N=C[C@@H]1CC(C)=CN1C2=O [SG3199] + O=C(c1cc(Cc2n[nH]c(=O)c3ccccc23)ccc1F)N1CCN(C(=O)C2CC2)CC1 [Olaparib] (first compound max 0.001 µM, 7x7, partner max 10 µM)	0.356	0.268	0.249	0.124	0.0819	0.984	0.138	0.292	0.0521	0.187	0.187	0.138	0.347	0.139	0.172	0.215	0.155	0.178	0.134	0.25
